The record followed here is patent publication US12521379B2, “Use of FK506 for the treatment of pulmonary arterial hypertension” (The Board of Trustees of the Leland Stanford Junior …, priority 2011, dated 2026).

Series [1] is described as follows: Prevention of PAH in mice with conditional deletion of BMPRII in ECs, 3 weeks of hypoxia. Conditions: mouse, serum, 0.05 mg/kg/day; mice, 0.05 mg/kg/d; read-out: serum levels. It counts as in vivo, mouse. As to the method:
(§1) 3600 FDA approved drugs and bioactive compounds were screened for their ability to activate BMP signaling, using a C2C12 mouse myoblast cell line stably transfected with a reporter plasmid expressing a BMP response element (BRE) from the Id1 promoter fused to the luciferase-gene (BRE-luc). Whether the best qHTS-BMPRII activator can induce Smad phosphorylation (phospho), Id1 expression and promote PAEC survival and tube formation was determined using BMP4 as a positive control. Whether the qHTS-BMPRII-activator would prevent PAH in mice with a conditional deletion in BMPRII in ECs (BMPRII-SCL-CreERT) that develop exaggerated PAH after 3 weeks of hypoxia (10% O2) was determined. In order to assess whether the BMPRII activator could also reverse PAH, we used 2 models of severe experimental PH in rats: 1. Monocrotaline induced pulmonary hypertension with development of severe medial hypertrophy of the pulmonary arteries 3 weeks after injection. 2. SUGEN (VEGF-Receptor blocker) and 3-week chronic hypoxia induced pulmonary hypertension with development of neointima formation in pulmonary arteries 8 weeks after initiation of the stimulus. Both groups were treated with FK-506 for 3 weeks via sc osmotic pump (0.05 mg/kg/d) after PAH and remodeling of the pulmonary arteries was established. The serum level of FK-506 in mice and rats was aimed to be 0.2 ng/ml.

Series [2] deals with mice with a conditional deletion in BMPRII in ECs (BMPRII-SCL-CreERT). The series is described as above. It counts as in vivo, mouse. The settings on record: 0.05 mg/kg/d, 3-week preventive treatment, 3 weeks of hypoxia, n=5. Here is the method:
as §1

Series [3] deals with monocrotaline induced pulmonary hypertension. As to the kind of experiment: Reversal of monocrotaline induced pulmonary hypertension in rats. The class given is in vivo, rat. As to the method:
as §1

Series [4] concerns SUGEN and chronic hypoxia induced pulmonary hypertension. Nature of the series: Reversal of SUGEN and 3-week chronic hypoxia induced pulmonary hypertension in rats. It counts as in vivo, rat. The settings on record: n=4. As to the method: as §1
For series [5], the system named is WBC count, nuclear NFATc2. As to the kind of experiment: Immunosuppressive effect at low dose: WBC count and nuclear NFATc2. The settings on record: low dose of 0.2 ng/ml. It counts as in vivo.
For series [6], the system named is PAECs harvested from IPAH patients. Nature of the series: p-Smad 1/5/8 and Id1 expression in PAECs harvested from IPAH patients. It counts as cell-based, human. Conditions: PAECs from six different IPAH patients at the time of transplant. As to the method: as §1
In series [7] the test system is PAECs. Nature of the series: PAEC survival. It counts as cell-based. The settings on record: n=5, p<0.001. Here is the method: as §1
The subject of series [8] is PAECs. Nature of the series: Tube formation in an angiogenesis assay. The class given is cell-based. The settings on record: n=3, p<0.01. Here is the method:
as §1

Where [9] appears, read: 3-week sc treatment at established PAH.

Regarding `C=CC[C@@H]1/C=C(\C)C[C@H](C)C[C@H](OC)[C@H]2O[C@@](O)(C(=O)C(=O)N3CCCC[C@H]3C(=O)O[C@H](/C(C)=C/[C@@H]3CC[C@@H](O)[C@H](OC)C3)[C@H](C)[C@@H](O)CC1=O)[C@H](C)C[C@@H]2OC` [FK-506], the concentration at 3 weeks in series [1] worked out at 0.2 ng/mL. Moreover, in series [2], the RV systolic pressure stood at 21±2.3 mmHg and the “RVH (right ventricular hypertrophy)” value was 26.9±4.5. Moreover, the survival in series [3] (after 3-week treatment started 3 weeks after monocrotaline 60 mg s.c.) amounted to 57%. Besides, in series [3] (surviving rats after 3-week treatment, n=14), the RVSP came to 39.5±4.7 mmHg. In addition, in series [4] (setting [9]), the RVH was determined as 0.34±0.02 and the RVSP is listed as 39.5±0.6 mmHg. For the same molecule, the “Neointima formation in small pulmonary arteries per total vessel number” value in series [4] (alveolar wall and alveolar duct vessels) is 16.2±5.8%. In series [5], the “immunosuppressive effect of decreased nuclear NFATc2” value was “nor was an immunosuppressive effect of decreased nuclear NFATc2 measured” and the “total or differential WBC count” value was “no effect”.

B1: BMP4: bone morphogenetic protein 4, used as a positive control (protein, UniProt P12644 293-408, looked up)
Bone morphogenetic protein 4: SPKHHSQRARKKNKNCRRHSLYVDFSDVGWNDWIVAPPGYQAFYCHGDCPFPLADHLNSTNHAIVQTLVNSVNSSIPKACCVPTELSAISMLYLDEYDKVVLKNYQEMVVEGCGCR
Consider B1, for which, in series [6], the Id1 expression is 3/6 patients that did not respond and the “p-Smad 1/5/8” value is recorded as 3/6 patients that did not respond. Also, the “survival of PAECs” value in series [7] is “improved survival”. For the same molecule, the tube formation entry in series [8] is reported as “induced tube formation”.
